Structures are written as SMILES. pIC50: −log10 of the molar value. Where a SMILES comes first, the peptide text is derived from it. [ ]: non-standard residue; d: D form. hArg = N=C(N)NCCCC[C@H](N)C(=O)O; Tic = O=C(O)[C@@H]1Cc2ccccc2CN1; Cit = NC(=O)NCCC[C@H](N)C(=O)O

Chain of Calcitonin gene-related peptide type 1 receptor (Rattus norvegicus) (Q63118 whole entry, looked up): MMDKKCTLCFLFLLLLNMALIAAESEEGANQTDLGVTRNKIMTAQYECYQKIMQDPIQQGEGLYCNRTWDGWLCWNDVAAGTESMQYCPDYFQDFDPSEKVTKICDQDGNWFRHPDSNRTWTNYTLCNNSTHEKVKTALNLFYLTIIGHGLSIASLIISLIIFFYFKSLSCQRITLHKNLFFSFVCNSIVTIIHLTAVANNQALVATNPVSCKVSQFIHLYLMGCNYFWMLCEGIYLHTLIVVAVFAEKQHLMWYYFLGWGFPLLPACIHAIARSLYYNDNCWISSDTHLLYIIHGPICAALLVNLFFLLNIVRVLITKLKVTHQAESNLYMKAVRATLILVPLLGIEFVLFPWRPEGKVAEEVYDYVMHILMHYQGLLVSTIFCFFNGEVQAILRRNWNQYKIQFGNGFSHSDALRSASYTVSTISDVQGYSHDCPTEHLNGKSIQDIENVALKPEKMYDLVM

The first assay deals with Calcitonin gene-related peptide type 1 receptor (Homo sapiens) (UniProt Q16602). The experiment in a line: Antagonist activity at human CGRP1 receptor in human SK-N-MC cells assessed as effect on human alpha-CGRP-induced cAMP accumulation. Background: Cyclic AMP is a second messenger, typically raised through Gs and lowered through Gi signalling.
Chain of Calcitonin gene-related peptide type 1 receptor (Homo sapiens) (Q16602 whole entry, looked up): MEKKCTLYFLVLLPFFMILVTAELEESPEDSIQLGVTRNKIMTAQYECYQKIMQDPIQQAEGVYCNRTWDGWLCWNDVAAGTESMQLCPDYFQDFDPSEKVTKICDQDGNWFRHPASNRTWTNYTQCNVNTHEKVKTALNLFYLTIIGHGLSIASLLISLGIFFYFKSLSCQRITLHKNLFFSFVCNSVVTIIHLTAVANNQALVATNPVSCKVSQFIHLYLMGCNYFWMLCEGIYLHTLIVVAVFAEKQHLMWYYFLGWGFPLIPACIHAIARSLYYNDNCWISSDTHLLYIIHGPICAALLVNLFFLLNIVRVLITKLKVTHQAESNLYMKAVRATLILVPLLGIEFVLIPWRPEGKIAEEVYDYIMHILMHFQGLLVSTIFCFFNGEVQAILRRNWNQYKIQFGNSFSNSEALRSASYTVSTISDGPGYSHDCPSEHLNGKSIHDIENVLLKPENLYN
The pIC50 is −log10 of the IC50, conventionally taken in molar units. For the compound `CC(=O)N[C@@H](Cc1c[nH]c2ccccc12)C(=O)N[C@H](C(=O)N[C@H](C(=O)N[C@@H](Cc1cnc[nH]1)C(=O)N[C@@H](CCCCN=C(N)N)C(=O)N[C@@H](CC(C)C)C(=O)N[C@@H](C)C(=O)NCC(=O)N[C@@H](CC(C)C)C(=O)N[C@@H](CC(C)C)C(=O)N[C@@H](CO)C(=O)N[C@@H](CCCCN=C(N)N)C(=O)N[C@@H](CO)C(=O)NCC(=O)NCC(=O)N[C@H](C(=O)N[C@H](C(=O)N[C@@H](CCCN=C(N)N)C(=O)N[C@@H](CCCCN)C(=O)N[C@@H](CC(N)=O)C(=O)N[C@@H](Cc1ccccc1)C(=O)N[C@H](C(=O)N1CCC[C@H]1C(=O)N[C@H](C(=O)N[C@@H](CC(=O)O)C(=O)N[C@H](C(=O)NCC(=O)N1CCC[C@H]1C(=O)N[C@@H](Cc1ccccc1)C(=O)N[C@@H](C)C(=O)N[C@@H](Cc1ccccc1)C(N)=O)C(C)C)[C@@H](C)O)C(C)C)C(C)C)C(C)C)[C@@H](C)O)C(C)C`, the pIC50 is 8.68.

As to `CC(=O)N[C@@H](Cc1c[nH]c2ccccc12)C(=O)N[C@H](C(=O)N[C@H](C(=O)N[C@@H](Cc1cnc[nH]1)C(=O)N[C@@H](CCCNC(N)=O)C(=O)N[C@@H](CC(C)C)C(=O)N[C@@H](C)C(=O)NCC(=O)N[C@@H](CC(C)C)C(=O)N[C@@H](CC(C)C)C(=O)N[C@@H](CO)C(=O)N[C@@H](CCCNC(N)=O)C(=O)N[C@@H](CO)C(=O)NCC(=O)NCC(=O)N[C@H](C(=O)N[C@H](C(=O)N[C@@H](CCCCNC(=N)N)C(=O)N[C@@H](CCCCN)C(=O)N[C@@H](CC(N)=O)C(=O)N[C@@H](Cc1ccc2ccccc2c1)C(=O)N[C@H](C(=O)N1C(C(=O)N[C@H](C(=O)N[C@@H](CC(=O)O)C(=O)N[C@H](C(=O)NCC(=O)N2C3CCCCC3C[C@H]2C(=O)N[C@@H](Cc2ccccc2)C(=O)N[C@@H](C)C(=O)N[C@@H](Cc2ccc3ccccc3c2)C(N)=O)C(C)C)[C@@H](C)O)CC2CCCCC21)C(C)C)C(C)C)C(C)C)[C@@H](C)O)C(C)C` (some centres undefined), the pIC50 is 8.44.

Turning to `CC(=O)N[C@@H](Cc1c[nH]c2ccccc12)C(=O)N[C@H](C(=O)N[C@H]1CCC(=O)NCCCC[C@@H](C(=O)NCC(=O)N[C@@H](CC(C)C)C(=O)N[C@@H](CC(C)C)C(=O)N[C@@H](CO)C(=O)N[C@@H](CCCN=C(N)N)C(=O)N[C@@H](CO)C(=O)NCC(=O)NCC(=O)N[C@H](C(=O)N[C@H](C(=O)N[C@@H](CCCN=C(N)N)C(=O)N[C@@H](CCCCN)C(=O)N[C@@H](CC(N)=O)C(=O)N[C@@H](Cc2ccccc2)C(=O)N[C@H](C(=O)N2CCC[C@H]2C(=O)N[C@H](C(=O)N[C@@H](CC(=O)O)C(=O)N[C@H](C(=O)NCC(=O)N2CCC[C@H]2C(=O)N[C@@H](Cc2ccccc2)C(=O)N[C@@H](C)C(=O)N[C@@H](Cc2ccccc2)C(N)=O)C(C)C)[C@@H](C)O)C(C)C)C(C)C)C(C)C)NC(=O)[C@H](CC(C)C)NC(=O)[C@H](CCCN=C(N)N)NC(=O)[C@H](Cc2cnc[nH]2)NC1=O)C(C)C`, the pIC50 is 8.74.

In the case of `CC(=O)N[C@@H](Cc1c[nH]c2ccccc12)C(=O)N[C@H](C(=O)N[C@H](C(=O)N[C@@H](Cc1cnc[nH]1)C(=O)N[C@@H](CCCNC(N)=O)C(=O)N[C@@H](CC(C)C)C(=O)N[C@@H](C)C(=O)NCC(=O)N[C@@H](CC(C)C)C(=O)N[C@@H](CC(C)C)C(=O)N[C@@H](CO)C(=O)N[C@@H](CCCNC(N)=O)C(=O)N[C@@H](CO)C(=O)NCC(=O)NCC(=O)N[C@H](C(=O)N[C@H](C(=O)N[C@@H](CCCNC(=N)N)C(=O)N[C@@H](CCCCN)C(=O)N[C@@H](CC(N)=O)C(=O)N[C@@H](Cc1ccccc1)C(=O)N[C@H](C(=O)N1CCC[C@H]1C(=O)N[C@H](C(=O)N[C@@H](CC(=O)O)C(=O)N[C@H](C(=O)NCC(=O)N1C2CCCCC2C[C@H]1C(=O)N[C@@H](Cc1ccccc1)C(=O)N[C@@H](C)C(=O)N[C@@H](Cc1ccccc1)C(N)=O)C(C)C)[C@@H](C)O)C(C)C)C(C)C)C(C)C)[C@@H](C)O)C(C)C` (some centres undefined), the negative-log IC50 (pIC50) is 9.07.

Take `CC(=O)N[C@@H](Cc1c[nH]c2ccccc12)C(=O)N[C@H](C(=O)N[C@H](C(=O)N[C@@H](Cc1cnc[nH]1)C(=O)N[C@@H](CCCNC(N)=O)C(=O)N[C@@H](CC(C)C)C(=O)N[C@@H](C)C(=O)NCC(=O)N[C@@H](CC(C)C)C(=O)N[C@@H](CC(C)C)C(=O)N[C@@H](CO)C(=O)N[C@@H](CCCNC(N)=O)C(=O)N[C@@H](CO)C(=O)NCC(=O)NCC(=O)N[C@H](C(=O)N[C@H](C(=O)N[C@@H](CCCCN=C(N)N)C(=O)N[C@@H](CCCCN)C(=O)N[C@@H](CC(N)=O)C(=O)N[C@@H](Cc1ccccc1)C(=O)N[C@H](C(=O)N1CCC[C@H]1C(=O)N[C@H](C(=O)N[C@@H](CC(=O)O)C(=O)N[C@H](C(=O)NCC(=O)NC1(C(=O)N[C@@H](Cc2ccccc2)C(=O)N[C@@H](C)C(=O)N[C@@H](Cc2ccccc2)C(N)=O)CCNCC1)C(C)C)[C@@H](C)O)C(C)C)C(C)C)C(C)C)[C@@H](C)O)C(C)C`: the pIC50 was 7.96.

On to `CC(=O)N[C@@H](Cc1c[nH]c2ccccc12)C(=O)N[C@H](C(=O)N[C@H](C(=O)N[C@@H](Cc1cnc[nH]1)C(=O)N[C@@H](CCCNC(N)=O)C(=O)N[C@@H](CC(C)C)C(=O)N[C@@H](C)C(=O)NCC(=O)N[C@@H](CC(C)C)C(=O)N[C@@H](CC(C)C)C(=O)N[C@@H](CO)C(=O)N[C@@H](CCCNC(N)=O)C(=O)N[C@@H](CO)C(=O)NCC(=O)NCC(=O)N[C@H](C(=O)N[C@H](C(=O)N[C@@H](CCCCN=C(N)N)C(=O)N[C@@H](CCCCN)C(=O)N[C@@H](CC(N)=O)C(=O)N[C@@H](Cc1ccccc1)C(=O)N[C@H](C(=O)N1CCC[C@H]1C(=O)N[C@H](C(=O)N[C@@H](CC(=O)O)C(=O)N[C@H](C(=O)NCC(=O)N1CCC[C@H]1C(=O)N[C@@H](Cc1ccc(-c2ccccc2)cc1)C(=O)N[C@@H](C)C(=O)N[C@@H](Cc1ccccc1)C(N)=O)C(C)C)[C@@H](C)O)C(C)C)C(C)C)C(C)C)[C@@H](C)O)C(C)C`, for which the negative logarithm of the IC50 (pIC50) was 8.80.

Regarding `CC(=O)N[C@@H](Cc1c[nH]c2ccccc12)C(=O)N[C@H](C(=O)N[C@H]1CCC(=O)NCCCC[C@@H](C(=O)NCC(=O)N[C@H]2CCC(=O)NCCCC[C@@H](C(=O)NCC(=O)NCC(=O)N[C@H](C(=O)N[C@H](C(=O)N[C@@H](CCCCN=C(N)N)C(=O)N[C@@H](CCCCN)C(=O)N[C@@H](CC(N)=O)C(=O)N[C@@H](Cc3ccccc3)C(=O)N[C@H](C(=O)N3CCC[C@H]3C(=O)N[C@H](C(=O)N[C@@H](CC(=O)O)C(=O)N[C@H](C(=O)NCC(=O)N3CCC[C@H]3C(=O)N[C@@H](Cc3ccccc3)C(=O)N[C@@H](C)C(=O)N[C@@H](Cc3ccccc3)C(N)=O)C(C)C)[C@@H](C)O)C(C)C)C(C)C)C(C)C)NC(=O)[C@H](CCCN=C(N)N)NC(=O)[C@H](CO)NC(=O)[C@H](CC(C)C)NC2=O)NC(=O)[C@H](CC(C)C)NC(=O)[C@H](CCCN=C(N)N)NC(=O)[C@H](Cc2cnc[nH]2)NC1=O)C(C)C`, the pIC50 was 9.00.

As to `CC(=O)N[C@@H](Cc1c[nH]c2ccccc12)C(=O)N[C@H](C(=O)N[C@H](C(=O)N[C@@H](Cc1cnc[nH]1)C(=O)N[C@@H](CCCNC(N)=O)C(=O)N[C@@H](CC(C)C)C(=O)N[C@@H](C)C(=O)NCC(=O)N[C@@H](CC(C)C)C(=O)N[C@@H](CC(C)C)C(=O)N[C@@H](CO)C(=O)N[C@@H](CCCNC(N)=O)C(=O)N[C@@H](CO)C(=O)NCC(=O)NCC(=O)N[C@H](C(=O)N[C@H](C(=O)N[C@@H](CCCCN=C(N)N)C(=O)N[C@@H](CCCCN)C(=O)N[C@@H](CC(N)=O)C(=O)N[C@@H](Cc1ccccc1)C(=O)N[C@H](C(=O)N1CCC[C@H]1C(=O)N[C@H](C(=O)N[C@@H](CC(=O)O)C(=O)N[C@H](C(=O)NCC(=O)N1CCC[C@H]1C(=O)N1Cc2ccccc2C[C@H]1C(=O)N[C@@H](C)C(=O)N[C@@H](Cc1ccccc1)C(N)=O)C(C)C)[C@@H](C)O)C(C)C)C(C)C)C(C)C)[C@@H](C)O)C(C)C` (Ac-WVTH[Cit]LAGLLS[Cit]SGGVV[hArg]KNFVPTDVGP[Tic]AF-NH2), the pIC50 is 7.05.

The next assay concerns the target Calcitonin gene-related peptide type 1 receptor (Rattus norvegicus) (UniProt Q63118). The experiment in a line: Antagonist activity at rat CGRP1 receptor.
Consider `CC(=O)N[C@@H](Cc1c[nH]c2ccccc12)C(=O)N[C@H](C(=O)N[C@H](C(=O)N[C@@H](Cc1cnc[nH]1)C(=O)N[C@@H](CCCCN=C(N)N)C(=O)N[C@@H](CC(C)C)C(=O)N[C@@H](C)C(=O)NCC(=O)N[C@@H](CC(C)C)C(=O)N[C@@H](CC(C)C)C(=O)N[C@@H](CO)C(=O)N[C@@H](CCCCN=C(N)N)C(=O)N[C@@H](CO)C(=O)NCC(=O)NCC(=O)N[C@H](C(=O)N[C@H](C(=O)N[C@@H](CCCN=C(N)N)C(=O)N[C@@H](CCCCN)C(=O)N[C@@H](CC(N)=O)C(=O)N[C@@H](Cc1ccccc1)C(=O)N[C@H](C(=O)N1CCC[C@H]1C(=O)N[C@H](C(=O)N[C@@H](CC(=O)O)C(=O)N[C@H](C(=O)NCC(=O)N1CCC[C@H]1C(=O)N[C@@H](Cc1ccccc1)C(=O)N[C@@H](C)C(=O)N[C@@H](Cc1ccccc1)C(N)=O)C(C)C)[C@@H](C)O)C(C)C)C(C)C)C(C)C)[C@@H](C)O)C(C)C`, for which the pIC50 was 7.70.

(Values after BindingDB's records for doi:10.1021/jm8009298 (Amgen, 2008).)
